Data from ChEMBL document CHEMBL1201862, “PubChem BioAssay data set” (2004).
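Each compound was tested at five concentrations against cells in 96-well plates for 48 hours. GI50 = concentration required for 50% inhibition of growth.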 The source made the active and inactive calls. Cut-off read from the data, not from the text of the source: active = GI50 up to about 1.1 µM and inactive = higher.

Legend:
Assay in all cases: NCI tumour cell line growth inhibition, 48 h
[1] = tested on: SR
[2] = tested on: OVCAR-5
[3] = tested on: HOP-92
[4] = tested on: SK-OV-3
[5] = tested on: MDA-MB-231
[6] = tested on: OVCAR-4
[7] = tested on: MDA-N
[8] = tested on: DU-145
[9] = tested on: SK-MEL-5
[10] = tested on: DMS-273
[11] = tested on: HCT-116
[12] = tested on: UACC-257
[13] = tested on: M19-MEL
[14] = tested on: LOX IMVI
[15] = tested on: EKVX
[16] = tested on: TK-10
[17] = tested on: KM-20L2
[18] = tested on: SF-539
[19] = tested on: HOP-18
[20] = tested on: A549

Compound	GI50 [1]	GI50 [2]	GI50 [3]	GI50 [4]	GI50 [5]	GI50 [6]	GI50 [7]	GI50 [8]	GI50 [9]	GI50 [10]	GI50 [11]	GI50 [12]	GI50 [13]	GI50 [14]	GI50 [15]	GI50 [16]	GI50 [17]	GI50 [18]	GI50 [19]	GI50 [20]
COc1cc2c(cc1OC)C(=O)/C(=C/c1cc(OC)c(OC)c(OC)c1)C2	> 100 µM (inactive)	> 100 µM (inactive)	> 100 µM (inactive)	> 100 µM (inactive)	66.7 µM (inactive)	> 100 µM (inactive)	> 100 µM (inactive)	> 100 µM (inactive)	> 100 µM (inactive)	–	–	–	–	–	–	–	–	–	–	–
O=C1CN2C(Cl)(Cl)C2(c2ccccc2)c2cc(Cl)ccc2N1CC(F)(F)F (configuration not stated)	28.9 µM (inactive)	56.1 µM (inactive)	13.6 µM (inactive)	51.2 µM (inactive)	–	18.5 µM (inactive)	–	–	17.9 µM (inactive)	24.8 µM (inactive)	21.6 µM (inactive)	19.6 µM (inactive)	38.3 µM (inactive)	17.5 µM (inactive)	32.2 µM (inactive)	50.2 µM (inactive)	32.5 µM (inactive)	–	–	–
CN1C2CC(=O)CC1[C@H](O)[C@@H]2O	> 100 µM (inactive)	–	–	–	> 100 µM (inactive)	–	> 100 µM (inactive)	> 100 µM (inactive)	–	–	> 100 µM (inactive)	> 100 µM (inactive)	–	> 100 µM (inactive)	> 100 µM (inactive)	> 100 µM (inactive)	–	–	–	–
CC1OC1C(=O)C1(O)C(C)C(O)C23OC2(C(O)c2c(O)cccc2C3=O)C1O (configuration not stated) [CERVICARCIN]	–	0.31 µM (active)	0.033 µM (active)	0.111 µM (active)	–	0.032 µM (active)	–	–	0.179 µM (active)	0.184 µM (active)	0.226 µM (active)	0.1 µM (active)	0.0933 µM (active)	0.2 µM (active)	0.0908 µM (active)	–	0.214 µM (active)	0.0647 µM (active)	0.0605 µM (active)	0.0488 µM (active)
COc1ccc2c3c1O[C@H]1C[C@@H](O)C=C[C@@]31CCN(C)C2 [GALANTAMINE]	–	> 150 µM (inactive)	> 150 µM (inactive)	> 150 µM (inactive)	–	> 150 µM (inactive)	–	–	> 150 µM (inactive)	> 150 µM (inactive)	> 150 µM (inactive)	> 150 µM (inactive)	> 150 µM (inactive)	> 150 µM (inactive)	> 150 µM (inactive)	–	> 150 µM (inactive)	> 18.9 µM (inactive)	> 150 µM (inactive)	> 150 µM (inactive)
O=c1cc[nH]c(=O)[nH]1 [URACIL]	–	> 746 µM (inactive)	311 µM (inactive)	813 µM (inactive)	–	> 656 µM (inactive)	–	–	177 µM (inactive)	403 µM (inactive)	261 µM (inactive)	804 µM (inactive)	279 µM (inactive)	375 µM (inactive)	294 µM (inactive)	–	426 µM (inactive)	378 µM (inactive)	> 1000 µM (inactive)	435 µM (inactive)
